Source: ChEMBL document CHEMBL1201862, “PubChem BioAssay data set” (2004)
The source made the active and inactive calls. No stated cut-off is given here; in the data, actives have a measured IC50 and inactives only a lower limit.

Molecular target: Envelope glycoprotein gp160 (Human immunodeficiency virus 1, UniProt Q6QLK5)
Experiment: inhibitors of HIV fusion peptide binding, primary screen, biochemical, uHTS, fluorescence dequenching (AID 1986)

Sequence of Envelope glycoprotein gp160 (Q6QLK5 whole entry, the tested form may be a part): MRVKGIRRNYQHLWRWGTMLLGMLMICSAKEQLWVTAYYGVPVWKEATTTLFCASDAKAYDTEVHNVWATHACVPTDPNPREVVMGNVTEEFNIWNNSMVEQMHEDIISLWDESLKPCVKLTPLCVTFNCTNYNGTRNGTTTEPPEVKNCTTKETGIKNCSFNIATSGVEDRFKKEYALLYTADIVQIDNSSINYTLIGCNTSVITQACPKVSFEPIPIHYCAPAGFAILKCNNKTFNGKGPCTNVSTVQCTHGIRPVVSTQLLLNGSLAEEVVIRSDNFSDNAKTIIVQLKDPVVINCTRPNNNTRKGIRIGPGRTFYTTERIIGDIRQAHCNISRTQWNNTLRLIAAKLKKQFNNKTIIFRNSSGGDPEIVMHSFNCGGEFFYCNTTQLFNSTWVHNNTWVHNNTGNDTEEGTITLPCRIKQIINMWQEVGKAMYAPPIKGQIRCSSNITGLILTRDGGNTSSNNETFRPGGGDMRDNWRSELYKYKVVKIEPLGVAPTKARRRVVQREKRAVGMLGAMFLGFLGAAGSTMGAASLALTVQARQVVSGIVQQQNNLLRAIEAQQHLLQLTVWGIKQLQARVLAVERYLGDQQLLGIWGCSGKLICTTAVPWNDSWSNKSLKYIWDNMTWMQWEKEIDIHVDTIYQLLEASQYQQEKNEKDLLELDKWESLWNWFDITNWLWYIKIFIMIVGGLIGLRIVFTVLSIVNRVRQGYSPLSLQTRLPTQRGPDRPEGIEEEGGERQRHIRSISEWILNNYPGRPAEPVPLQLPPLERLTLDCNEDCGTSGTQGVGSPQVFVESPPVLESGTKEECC

Row | Structure (SMILES) | IC50
1 | CC(C)NC(=O)c1sc(=S)n2c1[nH]c(=O)c1ccc(C(=O)NCCc3ccc(Cl)cc3)cc12 | 95.7 µM (active)
2 | O=C(O)COc1ccc(Br)cc1C(c1c(C(=O)O)[nH]c2ccccc12)c1c(C(=O)O)[nH]c2ccccc12 | 5.76 µM (active)
3 | CC1=NN(c2ccc(C(=O)O)cc2)C(=O)/C1=C\c1ccc(OC(=O)c2cccs2)cc1 | 12.6 µM (active)
4 | COc1ccc(/N=C2\S/C(=C\c3ccc(OCC(=O)O)cc3)C(=O)N2CCc2c[nH]c3ccccc23)cc1 | 12.6 µM (active)
